In PubChem BioAssay (NCI):
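A five-concentration, 48-hour dose response in 96-well plates underlies each endpoint, interpolated linearly between surrounding concentrations. TGI: total growth inhibition.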

Tests used:
Assay in all cases: growth of human tumour cells (NCI), 48 h
HOP-62 NSCLC = tested on: HOP-62 NSCLC
SK-MEL-28 melanoma = tested on: SK-MEL-28 melanoma
UACC-62 melanoma = tested on: UACC-62 melanoma
HT29 colon = tested on: HT29 colon
HS 578T breast = tested on: HS 578T breast
BT-549 breast = tested on: BT-549 breast
UACC-257 melanoma = tested on: UACC-257 melanoma
SW-620 colon = tested on: SW-620 colon
K-562 leukemia = tested on: K-562 leukemia
PC-3 prostate = tested on: PC-3 prostate
CCRF-CEM leukemia = tested on: CCRF-CEM leukemia
NCI-H522 lung = tested on: NCI-H522 lung
U251 CNS = tested on: U251 CNS
786-0 renal = tested on: 786-0 renal
MDA-MB-231 breast = tested on: MDA-MB-231 breast
NCI-H460 lung = tested on: NCI-H460 lung
NCI-H226 lung = tested on: NCI-H226 lung

SMILES	TGI (HOP-62 NSCLC)	TGI (SK-MEL-28 melanoma)	TGI (UACC-62 melanoma)	TGI (HT29 colon)	TGI (HS 578T breast)	TGI (BT-549 breast)	TGI (UACC-257 melanoma)	TGI (SW-620 colon)	TGI (K-562 leukemia)	TGI (PC-3 prostate)	TGI (CCRF-CEM leukemia)	TGI (NCI-H522 lung)	TGI (U251 CNS)	TGI (786-0 renal)	TGI (MDA-MB-231 breast)	TGI (NCI-H460 lung)	TGI (NCI-H226 lung)
CC1(C)CNC(=O)C2(CCCO2)CNC(C)(C)CNC(=O)C2(CCCO2)CN1 (stereo not given)	> 10 µM	> 10 µM	> 10 µM	> 10 µM	> 10 µM	> 10 µM	> 10 µM	> 10 µM	> 10 µM	> 10 µM	> 10 µM	> 10 µM	> 10 µM	> 10 µM	> 10 µM	–	–
O=C1Cc2c(-c3cccs3)cc(-c3ccccc3)nc2-c2ccccc2N1	> 100 µM	> 100 µM	> 100 µM	43.9 µM	17.2 µM	> 100 µM	> 100 µM	> 100 µM	> 100 µM	> 100 µM	> 100 µM	> 100 µM	–	> 100 µM	> 100 µM	> 100 µM	> 100 µM
COc1ccc2c(O)c(Oc3ccc(Cl)cc3)c(=O)oc2c1	> 100 µM	> 100 µM	–	> 100 µM	> 100 µM	> 100 µM	> 100 µM	> 100 µM	> 100 µM	> 100 µM	> 100 µM	> 100 µM	> 100 µM	> 100 µM	> 100 µM	> 100 µM	> 100 µM
COc1cccc(OC)c1C1ON=C(c2ccccc2)N1C12CC3CC(CC(C3)C1)C2 (stereo not given)	> 100 µM	> 100 µM	> 100 µM	> 100 µM	> 100 µM	> 100 µM	> 100 µM	> 100 µM	> 100 µM	> 100 µM	–	> 100 µM	> 100 µM	> 100 µM	> 100 µM	> 100 µM	> 100 µM
COC(=O)C(Cc1ccccc1)NC(=O)CSc1nnc(COc2ccc(Cl)cc2)n1-c1ccccc1 (stereo not given)	45 µM	78.6 µM	27.9 µM	53.2 µM	> 100 µM	69.6 µM	26.2 µM	> 100 µM	> 100 µM	59 µM	63.3 µM	–	32.9 µM	29.8 µM	41.8 µM	35.7 µM	> 100 µM
CCNC1=C(NC(=O)c2ccc(F)cc2)C(=O)c2ccccc2C1=O	> 100 µM	> 100 µM	> 100 µM	53.6 µM	> 100 µM	> 100 µM	46.9 µM	> 100 µM	> 100 µM	> 100 µM	> 100 µM	> 100 µM	–	> 100 µM	> 100 µM	> 100 µM	> 100 µM
C#CCN(Cc1ccc2nc(-c3ccccc3)c(Cl)nc2c1)c1ccc(F)cc1	> 100 µM	> 100 µM	> 100 µM	> 100 µM	> 100 µM	> 100 µM	> 100 µM	> 100 µM	–	> 100 µM	> 100 µM	> 100 µM	> 100 µM	> 100 µM	> 100 µM	> 100 µM	–
